Data: patent US5157032A, “Mixed ligand complexes and uses thereof as binding agents and probes to DNA” (The Trustees of Columbia University In The City of New York, priority 1990, dated 1992)
Where “and” joins values, the source holds several entries; their conditions need not be identical. Equal values may be shown once. Entries after “also recorded” stand apart in the source; their conditions may differ. Read-outs that look alike come from different tables or passages of the source. Each block holds one molecule with its values, some of them ahead of it.

Key:
[1] = test system: CEM cell line (T4 lymphocytes); experiment: Growth inhibition of uninfected CEM cells in the anti-HIV screen (XTT); type: cell-based
Procedure: (§1) 1. […] lymphocytes (CEM cell line) are exposed to HIV at a virus to cell ratio approximately 0.05, and plated along with noninfected control cells in 96-well microtiter plates.
(§2) 2. Candidate agent is dissolved in dimethyl sulfoxide (unless otherwose instructed), then diluted 1:200 in cell culture medium. Further dilutions (half-log10) are prepared before adding to an equal volume of medium containing either infected or noninfected cells.
(§3) 3. Cultures are incubated at 37° in a 5% carbon dioxide atmosphere for 6 or 7 days.
(§4) 4. The tetrazolium salt, XTT, is added to all wells, and cultures are incubated to allow formazan color development by viable cells.
(§5) 5. Individual wells are analyzed spectrophotometrically to quantitate formazan production, and in addition are viewed microscopically for detection of viable cells and confirmation of protective activity.
(§6) 6. Drug-treated virus-infected cells are compared with drug-treated noninfected cells and with other appropirate controls (untreated infected and untreated noninfected cells, drug-containing wells without cells, etc.) on the same plate.
(§7) The Graphic Results Summary Section: FIGS. 23-33 display a plot of Log 10 of the sample's concentration (as μg/mL or molar) against the measured test values expressed as a percentage of uninfected, untreated control values. The solid line connecting the diamond symbols depicts the percentage of surviving HIV-infected cells treated with your sample (at the indicated onccentration) relative to uninfected, untreated cotrols. This line expressed the in-vitro anti-HIV activity of your sample. The dashed line connecting the square symbols depicts the percentage of surviving uninfected cells treated with your sample relative to the same uninfected, untreated controls. This line expresses the in-vitro growth inhibitory properties of your sample. The viral cytophathic effect in this particular experiment is indicated by a dotted reference line. […] Values of this parameter less than 50% are considered acceptable in the current protocol. Reference lines at 0% and 50% are depicted as alternating dots and dashes.

[2] = test system: HIV; type: cell-based
Procedure: The procedure used For testing agents active against (HIV) is designed to detect agents acting at any stage of the virus reproductive cycle. The assay basically involves the killing of T4 lympnocytes by HIV. Small amounts of HIV are added to cells, and at least two complete cycles of virus reproduction are necessary to obtain the required cell killing. […] The system is automated in several ceatures to accomodate large numbers of candidate agents, and is generally designed to detect anti-HIV activity. […]. Also, while every attempt has been made to reduce variability, precise values for EC50, IC50, and Therapeautic Index are not possible. All tests are compared with a positive (AZT-treated) control done at the same time under identical conditions.
as §1, §2, §3, §4, §5, §6
7. Data are reviewed in comparison with other tests done at the same time, and a determinatin about activity is made.
Several complexes were tested for use as agents active against (HIV). […]
as §7

[3] = test system: calf thymus DNA; experiment: Equilibrium dialysis of racemic complexes against calf thymus DNA (Scatchard, dialysate CD); type: binding; parameters: Km × 10) equilibrium dialysis (intrinsic binding constant Kb): scale not given here; details: for Site size: fit to McGhee and von Hippel equation; for binding affinity for DNA: comparative; for Km × 10) equilibrium dialysis (intrinsic binding constant Kb): 5 mM Tris, 50 mM NaCl, pH 7.5, standard deviation in parentheses
Procedure: Equilibrium Dialysis: Equlibrium dialysis of the reacemic metal complexes was perforemd against calf-thymus DNA using procedures described previously. (74) The buffer used was 5 mM Tris, 50 mM NaCl at pH 7.5. Samples were agitated on a shaker bath during equilibration which occurred after three to five days, as determined by control samples containing no DNA. After equilibration, volumes of liquid inside and outside the dialysis bags were determined (approximately 1 and 3 mls, respectively) and circular dichroism of the dialysate was meaxured on a Jasco J-40 spectropolarimeter. Final ruthenium concentration inside and outside the bags were measured by visible absorbance. Data anaylsis was performed on a VAX-780 using non-linear least squares analysis.
Equilibrium Dialysis: Equilibrium binding constants for the metal complexes with DNA may be determined classically by equilibrium dialysis. Calf thymus DNA was dialyzed against the series of mixed ligand complexes using a broad range of ruthenium concentrations. […] The results have been plotted according to Scatchard (88), where r is the ratio of bound metal to DNA-phosphate concentration, and cf is the concentration of free metal complex. The data were fit by non-linear least squares analysis to the McGhee and von Hippel equation (8945) governing random non-cooperative binding to a lattice,
where r is the ratio of bound concentration of ruthenium to the concentration of DNA-phosphate, cf is the concentration of ruthenium free in soltuion, Kb the intrinsic binding constant, and the integer /, which measures the degree of anti-cooperativeity, is the size of a binding site in base pairs. The curves shown reflect the best fit after variation of two parameters: the intrinsic binding constant, Kb, and binding stie size, /. For those complexes were cooperatively was observed, the equation (89) incorporating a cooperativity parameter was used.
Equilibrium dialysis experiments additionally offer the opportunity to examine any enantiomeric selectivities associated with binding. After dialysis of the DNA against the racemic mixture, optical activity observed in the dialysate refelects an enrichment in the dialysate in the less favored enantiomer. For most of the complexes, optical activity was found in the dialysate. Values for the extent of enantiomeric selectivity could not be quanitated in the absence of determinations of DE and assignments of absolute configuration. Assuming that the signs of the circular chroism in the ultraviolet ligand bands are the same for the these ligands as that for the parent phenanthroline complex, (90) we have assigned the absolute configuration of these complexes by comparison to spectra for enantiomers of Ru(phen)3^2+ and have compared levels of enantioselectivity qualitatively through measurements of circular dichroic intensity per rutheium bound. Based upon these assumptions, we find enantionmeric selectivities for the polyridyl complexes to reflect an enrichment in the isomer in the dialysate and the preferential binding of the isomer to the right-handed DNA. This observation is consistent with the preferential intercalation of isomers found earlier for Ru(phen)3^2+ in right-handed B-DNA. (63) We may also compare relative enantioselectivities for different ancillary ligands. […] The same comparison may be seen qualitatively between Ru(phen)2 DIP^2+ and Ru(bpy)2 DIP^2+.

[4] = test system: calf thymus DNA; experiment: Absorption titration with calf thymus DNA (half-reciprocal, hypochromism); type: binding; details: in words; for binding to DNA: absorption changes too small for Kb
Text: In plots of [DNA]/(εA -εF) versus [DNA], Kb is given by the ratio of the slope to intercept.

[5] = test system: calf thymus DNA; experiment: Spectroscopic properties (absorption, emission, lifetime) on binding to calf thymus DNA; details: 7 μM Ru, 40:1 nucleotide/metal, 20° C.
Procedure: Instrumentation: NMR spectra were recorded on a Varian VXR-300MHz spectormeter. FABS were performed using a VG Analytical 7070EQ Mas Spectrometer (78), and elemental analyses were done by Galbraith Laboratories in Nashville, Tenn. UV-Visible absorbance spectal were recorded on a Varian CARY-219 absorbance spectorphotometer. Extinction coefficients for the compounds were determined versus ruthenium concentrations obtained by atomic absorption spectroscopy with known ruthenium standards. [Ru(bpy)3 ]Cl2 solutions were also employed for these determinations as an internal standard. A varian AA-875 atomic absorption spectrophotometer was used for these determinations.
Emission spectra were measured on a Perkin-Elmer LS-5 fluorescence spectrometer. The samples were excited at their corresponding isosbestic points. All the measurements were made at 20° C. in a thermostatted cuvette holder with 3 nm entrance slit and 10 nm exit slit. Ruthenium solutions employed were 7 μM in concentration and claf thymus DNA was added to a ration of 40:1 nucleotide/metal; ruthenuim-DNA soltuions were allowed to incubate for 15 minutes before enhanced spectra were recorded. The emission enhancement factors were measured by comparing the intensitites at the emission spectral mixima in the absence ad presence of DNA, under similar conditions.
The limunescence lifetime measurements were done on a PRA SPC (single photon countining) spectometer with some minor modifications. The samples were excited with a nitrogen filled tnynratron gated flash lamp and the data were collected using a Tracor Northern 1710 multichannel analyser. The data were then transferred to a PDP-11/03 computer and deconvoluted with PRA software. […] concentrated solution of DNA (5mM DNA-phosphate) in buffer was added to a solution of the metal complex (4 μM) in buffer and allowed to equilibrate. Lifetimes of the samples were measured 0.5 hr after the metal complexes were mixed with DNA. All measurements were made at 20° C. and under air saturated conditions.
Furthermore, for all the complexes, this electronic transition is perturbed on binding to DNA.

[6] = target: pBR322 DNA; experiment: Unwinding of supercoiled pBR322 DNA (topoisomerase I assay); details: for EC50: read-out: Unwinding concentration, needed to unwind 11 of 22 supercoils, [DNA] 47 μM for phi complexes, 31.5 μM others, 60 min; for Unwinding Angle: per molecule of bound complex
[7] = Table 12, dose 1 of 8, printed 9.14 × 10- μg/ml
[8] = Table 12, dose 2 of 8, printed 1.82 × 10+ μg/ml
[9] = Table 12, dose 3 of 8, printed 3.65 × 10+ μg/ml
[10] = Table 12, dose 4 of 8, printed 7.31 × 10+ μg/ml
[11] = Table 12, dose 5 of 8, printed 1.46 × 10+ μg/ml
[12] = Table 12, dose 6 of 8, printed 2.92 × 10+ μg/ml
[13] = Table 12, dose 7 of 8, printed 5.85 × 10+ μg/ml
[14] = Table 12, dose 8 of 8, printed 1.17 × 10+ μg/ml

Infected Culture Response(%) [2, 7]: 12.4%
Infected Culture Response(%) [2, 8]: 18.5%
Infected Culture Response(%) [2, 9]: 64.7%
Infected Culture Response(%) [2, 10]: 45.4%
Infected Culture Response(%) [2, 11]: -.3%
Infected Culture Response(%) [2, 12]: -.9%
Infected Culture Response(%) [2, 13]: -1.8%
Infected Culture Response(%) [2, 14]: -1.8%
Infected Culture Response(%) ([2]; Tables 6-11, dose 3 of 8, 1.17 × 10- [sic] μg/ml): 8.0%
SMILES: [Rh+3].c1ccc(-c2ccnc3c2ccc2c(-c4ccccc4)ccnc23)cc1.c1ccc(-c2ccnc3c2ccc2c(-c4ccccc4)ccnc23)cc1.c1ccc(-c2ccnc3c2ccc2c(-c4ccccc4)ccnc23)cc1 [Rh(DIP)3]
Uninfected Culture Response(%) [1, 7]: 92.9%
Uninfected Culture Response(%) [1, 8]: 91.8%
Uninfected Culture Response(%) [1, 9]: 82.4%
Uninfected Culture Response(%) [1, 10]: 55.2%
Uninfected Culture Response(%) [1, 11]: -.9%
Uninfected Culture Response(%) [1, 12]: -1.6%
Uninfected Culture Response(%) [1, 13]: -.7%
Uninfected Culture Response(%) [1, 14]: -1.5%
Uninfected Culture Response(%) ([1]; Tables 2-5, dose 1 of 8, 1.25 × 10- [sic] μg/ml): 110.1% and 100.3% and 133.6% and 105.1%
Uninfected Culture Response(%) ([1]; Tables 2-5, dose 2 of 8, 1.25 × 10- [sic] μg/ml): 113.1% and 98.9% and 131.0% and 82.1%
Uninfected Culture Response(%) ([1]; Tables 2-5, dose 3 of 8, 1.25 × 10- [sic] μg/ml): 106.0% and 89.3% and 108.6% and 65.1%
Uninfected Culture Response(%) ([1]; Tables 2-5, dose 8 of 8, 1.25 × 10+ [sic] μg/ml): -6% and -1.6% and -6.8% and -2.1%
Uninfected Culture Response(%) ([1]; Tables 6-11, dose 1 of 8): 101.9% and 100.5% and 96.6% and 96.5% and 100.2% and 101.1%
Uninfected Culture Response(%) ([1]; Tables 6-11, dose 2 of 8): 94.1% and 96.9% and 97.4% and 80.8% and 102.4% and 95.3%
Uninfected Culture Response(%) ([1]; Tables 6-11, dose 3 of 8): 96.8% and 102.2% and 101.8% and 86.9% and 115.3% and 110.6%
Uninfected Culture Response(%) ([1]; Tables 6-11, dose 4 of 8): 95.5% and 100.6% and 98.1% and 98.3% and 121.1% and 108.9%
Uninfected Culture Response(%) ([1]; Tables 6-11, dose 5 of 8): 97.9% and 104.2% and 101.3% and 88.4% and 113.8% and 93.7%
activity in inhibiting the activity of HIV ([2]; in words): moderately active

SMILES: O=[N+]([O-])c1cc2cccnc2c2ncccc12.O=[N+]([O-])c1cc2cccnc2c2ncccc12.O=[N+]([O-])c1cc2cccnc2c2ncccc12.[Ru+2] [Ru(5-NO2phen)3^2+, [Ru(5-nitrophenanthroline)3)]Cl2]
Site size [3]: 8-12 base pairs
binding affinity for DNA ([3]; in words): bind only poorly to DNA; also recorded: much lower than would be expected based upon their solvent accessible surfaces
binding to DNA [4]: bound very weakly

SMILES: [Ru+2].c1ccc(-c2ccccn2)nc1.c1ccc(-c2ccccn2)nc1.c1ccc(-c2ccnc3c2ccc2c(-c4ccccc4)ccnc23)cc1 [Ru(bpy)2 (DIP)^2+]
Km × 10) equilibrium dialysis (intrinsic binding constant Kb) [3]: 1.7(.3) × 10
Site size [3]: 12-18 base pairs
Emission Enchantment (I/Io) [5]: 1.13 I/Io
EC50 [6]: 170 µM
binding to DNA [4]: bound very weakly

SMILES: N=C1C(=N)c2ccccc2-c2ccccc21.[Ru+2].c1ccc(-c2ccccn2)nc1.c1ccc(-c2ccccn2)nc1 [Ru(bpy)2 (phi)^2+]
Km × 10) equilibrium dialysis (intrinsic binding constant Kb) [3]: 160.(17) × 10
Site size [3]: 4 base pairs
Unwinding Angle [6]: 17 degrees
EC50 [6]: 1.1 µM
hypochromism / absorption change on DNA addition [4]: greatest change in absorption

SMILES: [Ru+2].c1ccc(-c2ccccn2)nc1.c1cnc2c(c1)ccc1cccnc12.c1cnc2c(c1)ccc1cccnc12 [Ru(phen)2 (bpy)^2+]
Site size [3]: 5-7 base pairs
Emission Enchantment (I/Io) [5]: 1.43 I/Io
Unwinding Angle [6]: 18 degrees
EC50 [6]: 11 µM

SMILES: N=C1C(=N)c2ccccc2-c2ccccc21.N=C1C(=N)c2ccccc2-c2ccccc21.[Ru+2].c1ccc(-c2ccccn2)nc1 [Ru(phi)2 (bpy)^2+]
Site size [3]: cooperative
aggregation in solution ([3]; in words): tend to agfregate in solution
binding curve type (cooperativity) ([3]; in words): cooperatiove binding
binding affinity for DNA ([3]; in words, listed as Ru(phi) 2 bpy^2+): in the range of those for Ru(phen)2phi^2+
binding affinity for DNA ([3]; in words, listed as Ru(phi)2 bpy^2+): decreased affinity for DNA relative to Ru(bpy)2 ph^2+
unwinding of the helix ([6]; in words): lower concentration
EC50 [6]: 0.6 µM
hypochromism / absorption change on DNA addition [4]: greatest change in absorption
